Reference: ChEMBL document CHEMBL1138213, “Novel multipotent tacrine-dihydropyridine hybrids with improved acetylcholinesterase inhibitory and neuroprotective activities as potential drugs for the treatment of Alzheimer's disease” (J Med Chem, 2006)

Columns and labels:
cells = details: Homo sapiens, SH-SY5Y
Description: Antagonist activity at calcium channel expressed in SH-SY5Y cells assessed as blockade of potassium-induced calcium influx increase at 0.3 uM relative to control

SH-SY5Y = assay: cells; details: Homo sapiens, read-out: Activity
Description: Viability of SH-SY5Y cells measured as neuroprotection activity in presence of H2O2 at 0.3 uM relative to control

Acetylcholinesterase [1] = target: Acetylcholinesterase (Electrophorus electricus, UniProt O42275)
Description: Inhibition of Electrophorus electricus AChE

Cholinesterase = Cholinesterase (Homo sapiens, UniProt P06276)
Description: Inhibition of human serum BuChE

Acetylcholinesterase [2] = target: Acetylcholinesterase (Homo sapiens, UniProt P22303)
Chain of Acetylcholinesterase (Homo sapiens, UniProt P22303) (P22303 whole entry): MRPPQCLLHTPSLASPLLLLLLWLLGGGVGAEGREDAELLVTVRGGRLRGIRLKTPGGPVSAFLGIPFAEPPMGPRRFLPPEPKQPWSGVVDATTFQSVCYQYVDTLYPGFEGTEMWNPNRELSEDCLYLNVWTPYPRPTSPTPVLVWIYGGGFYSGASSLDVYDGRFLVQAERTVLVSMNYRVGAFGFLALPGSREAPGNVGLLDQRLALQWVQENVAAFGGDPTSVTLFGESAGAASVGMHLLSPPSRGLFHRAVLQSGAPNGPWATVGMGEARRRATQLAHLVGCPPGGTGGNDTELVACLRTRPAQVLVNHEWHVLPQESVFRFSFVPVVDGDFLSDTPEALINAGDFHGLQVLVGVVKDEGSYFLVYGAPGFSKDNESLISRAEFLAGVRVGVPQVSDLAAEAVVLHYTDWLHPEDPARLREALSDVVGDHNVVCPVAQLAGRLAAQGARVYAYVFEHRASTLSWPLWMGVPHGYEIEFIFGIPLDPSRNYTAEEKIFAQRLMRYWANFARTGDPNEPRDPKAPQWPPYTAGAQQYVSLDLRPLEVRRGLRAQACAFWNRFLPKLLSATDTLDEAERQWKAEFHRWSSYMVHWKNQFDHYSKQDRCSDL
Description: Inhibition of human erythrocyte AChE

Chain of Acetylcholinesterase (Electrophorus electricus, UniProt O42275) (O42275 whole entry): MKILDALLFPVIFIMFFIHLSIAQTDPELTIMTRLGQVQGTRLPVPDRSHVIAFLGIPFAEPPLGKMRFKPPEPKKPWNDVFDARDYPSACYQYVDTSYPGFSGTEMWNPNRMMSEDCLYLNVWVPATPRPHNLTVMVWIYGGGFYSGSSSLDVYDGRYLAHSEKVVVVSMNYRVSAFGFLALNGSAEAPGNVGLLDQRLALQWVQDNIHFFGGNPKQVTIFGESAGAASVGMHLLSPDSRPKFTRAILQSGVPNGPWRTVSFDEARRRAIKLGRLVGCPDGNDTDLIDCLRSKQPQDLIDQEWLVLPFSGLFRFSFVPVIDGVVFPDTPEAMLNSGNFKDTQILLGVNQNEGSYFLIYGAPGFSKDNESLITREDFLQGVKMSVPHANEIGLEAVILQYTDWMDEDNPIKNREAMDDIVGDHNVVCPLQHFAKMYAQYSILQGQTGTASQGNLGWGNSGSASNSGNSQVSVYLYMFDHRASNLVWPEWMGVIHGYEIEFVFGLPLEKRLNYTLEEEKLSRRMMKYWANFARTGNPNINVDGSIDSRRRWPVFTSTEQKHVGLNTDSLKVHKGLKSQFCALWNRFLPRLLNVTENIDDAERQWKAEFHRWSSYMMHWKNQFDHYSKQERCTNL
Chain of Cholinesterase (P06276 whole entry): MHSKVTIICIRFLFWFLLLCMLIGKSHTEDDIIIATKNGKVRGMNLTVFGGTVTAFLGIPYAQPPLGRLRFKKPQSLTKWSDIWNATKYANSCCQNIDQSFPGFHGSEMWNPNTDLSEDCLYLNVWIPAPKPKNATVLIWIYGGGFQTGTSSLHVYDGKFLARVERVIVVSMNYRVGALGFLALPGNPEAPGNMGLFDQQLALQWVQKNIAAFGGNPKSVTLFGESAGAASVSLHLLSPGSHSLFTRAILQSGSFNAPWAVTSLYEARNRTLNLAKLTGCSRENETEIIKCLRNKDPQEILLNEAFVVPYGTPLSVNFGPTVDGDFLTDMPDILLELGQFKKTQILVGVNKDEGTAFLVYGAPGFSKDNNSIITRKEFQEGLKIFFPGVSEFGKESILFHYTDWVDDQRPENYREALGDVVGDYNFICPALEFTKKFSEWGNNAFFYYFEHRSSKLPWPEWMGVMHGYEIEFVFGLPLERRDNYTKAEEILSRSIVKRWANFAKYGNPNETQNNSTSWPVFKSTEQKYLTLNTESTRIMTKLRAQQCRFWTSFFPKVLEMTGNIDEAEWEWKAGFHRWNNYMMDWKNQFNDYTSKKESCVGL

Compound: COCCOC(=O)C1=C(C)NC(C)=C(C(=O)OC(C)C)C1c1cccc([N+](=O)[O-])c1 (stereo not drawn) [NIMODIPINE]
- inhibition at 0.3 µM (cells): 45.5%
- viability at 0.3 µM (SH-SY5Y): 36%

Compound: CCOC(=O)C1=C(C)Nc2nc3c(c(N)c2C1c1ccc(F)cc1)CCCC3 (stereo not drawn)
- inhibition at 0.3 µM (cells): 22.2%

Compound: CCOC(=O)C1=C(C)Nc2nc3c(c(N)c2C1c1ccccc1[N+](=O)[O-])CCCC3 (stereo not drawn)
- inhibition at 0.3 µM (cells): 32.6%

Compound: CCOC(=O)C1=C(C)Nc2nc3c(c(N)c2C1c1cccc(OC)c1)CCCC3 (stereo not drawn)
- inhibition at 0.3 µM (cells): 31%

Compound: CCOC(=O)C1=C(C)Nc2nc3c(c(N)c2C1c1ccccc1)CCCC3 (stereo not drawn)
- IC50 (Acetylcholinesterase [1]): 0.08 µM
- IC50 (Cholinesterase): > 100 µM
- inhibition at 0.3 µM (cells): 36.6%
- viability at 0.3 µM (SH-SY5Y): 30.6%
- IC50 (Acetylcholinesterase [2]): 0.122 µM

Compound: CCOC(=O)C1=C(C)Nc2nc3c(c(N)c2C1c1cccc([N+](=O)[O-])c1)CCCC3 (stereo not drawn)
- inhibition at 0.3 µM (cells): 33.6%

Compound: CCOC(=O)C1=C(C)Nc2nc3c(c(N)c2C1c1ccccc1OC)CCCC3 (stereo not drawn)
- inhibition at 0.3 µM (cells): 46.5%

Compound: CCOC(=O)C1=C(C)Nc2nc3c(c(N)c2C1c1ccc(OC)cc1)CCCC3 (stereo not drawn)
- inhibition at 0.3 µM (cells): 32.8%

Compound: CCOC(=O)C1=C(C)Nc2nc3c(c(N)c2C1c1ccc(C)cc1)CCCC3 (stereo not drawn)
- IC50 (Acetylcholinesterase [1]): 0.091 µM
- IC50 (Cholinesterase): > 100 µM
- inhibition at 0.3 µM (cells): 29.8%
- viability at 0.3 µM (SH-SY5Y): 53.7%
- IC50 (Acetylcholinesterase [2]): 0.169 µM

Compound: CCOC(=O)C1=C(C)Nc2nc3c(c(N)c2C1c1ccc([N+](=O)[O-])cc1)CCCC3 (stereo not drawn)
- IC50 (Acetylcholinesterase [1]): 0.6 µM
- IC50 (Cholinesterase): 34.4 µM
- inhibition at 0.3 µM (cells): 66.7%
- viability at 0.3 µM (SH-SY5Y): 35.5%
- IC50 (Acetylcholinesterase [2]): 0.309 µM
